{"source": "ChEMBL document CHEMBL1138949", "about": "“Bromine- and iodine-substituted 16alpha,17alpha-dioxolane progestins for breast tumor imaging and radiotherapy: synthesis and receptor binding affinity” (J Med Chem, 2006)", "data": [{"target": "T1, Progesterone receptor (Rattus norvegicus) (UniProt Q63449)", "T1 sequence (whole entry)": "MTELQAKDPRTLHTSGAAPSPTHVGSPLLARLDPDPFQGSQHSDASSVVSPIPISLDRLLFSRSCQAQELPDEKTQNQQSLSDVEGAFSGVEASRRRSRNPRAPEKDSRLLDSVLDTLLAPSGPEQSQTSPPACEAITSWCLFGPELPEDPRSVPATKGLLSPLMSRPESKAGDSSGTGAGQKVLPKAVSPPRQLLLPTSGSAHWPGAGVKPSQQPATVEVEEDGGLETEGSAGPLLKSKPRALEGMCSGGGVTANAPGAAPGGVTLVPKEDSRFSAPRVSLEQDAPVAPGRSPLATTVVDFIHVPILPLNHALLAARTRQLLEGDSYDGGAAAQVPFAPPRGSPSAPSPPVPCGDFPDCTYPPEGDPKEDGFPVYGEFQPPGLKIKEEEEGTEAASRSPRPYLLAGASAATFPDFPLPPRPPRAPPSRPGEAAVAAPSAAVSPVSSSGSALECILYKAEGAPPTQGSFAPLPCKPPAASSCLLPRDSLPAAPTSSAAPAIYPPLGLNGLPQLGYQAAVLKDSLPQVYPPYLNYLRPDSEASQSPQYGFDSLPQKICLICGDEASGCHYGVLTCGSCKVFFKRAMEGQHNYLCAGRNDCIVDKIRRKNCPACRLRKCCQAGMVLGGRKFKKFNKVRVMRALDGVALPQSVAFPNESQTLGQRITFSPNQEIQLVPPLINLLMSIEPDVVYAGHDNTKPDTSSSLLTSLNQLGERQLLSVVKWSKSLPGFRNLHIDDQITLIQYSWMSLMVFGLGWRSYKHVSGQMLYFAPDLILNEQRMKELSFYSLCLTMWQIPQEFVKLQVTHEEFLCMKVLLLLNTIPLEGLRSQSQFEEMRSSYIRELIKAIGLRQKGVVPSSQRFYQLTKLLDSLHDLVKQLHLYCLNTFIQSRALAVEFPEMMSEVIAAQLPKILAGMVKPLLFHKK", "assay": "Inhibition of [3H]R5020 binding to rat uterine progesterone receptor relative to R5020", "values": [{"smiles": "C[C@]12CC[C@H]3[C@@H](CCC4=CC(=O)CC[C@@H]43)[C@@H]1C[C@H]1O[C@@H](c3ccco3)O[C@]12C(=O)CO", "relative binding affinity (RBA)": 55}, {"smiles": "C[C@]12CC[C@H]3[C@@H](CCC4=CC(=O)CC[C@@H]43)[C@@H]1C[C@H]1O[C@H](c3ccco3)O[C@]12C(=O)CF", "relative binding affinity (RBA)": 11}, {"smiles": "C[C@]12CC[C@H]3[C@@H](CCC4=CC(=O)CC[C@@H]43)[C@@H]1C[C@H]1O[C@@H](c3ccco3)O[C@]12C(=O)CF", "relative binding affinity (RBA)": 190}, {"smiles": "C[C@]12CC[C@H]3[C@@H](CCC4=CC(=O)CC[C@@H]43)[C@@H]1C[C@H]1O[C@H](c3ccco3)O[C@]12C(=O)CO", "relative binding affinity (RBA)": 2.5}]}, {"target": "T2, Progesterone receptor (Homo sapiens) (UniProt P06401)", "T2 sequence (whole entry)": "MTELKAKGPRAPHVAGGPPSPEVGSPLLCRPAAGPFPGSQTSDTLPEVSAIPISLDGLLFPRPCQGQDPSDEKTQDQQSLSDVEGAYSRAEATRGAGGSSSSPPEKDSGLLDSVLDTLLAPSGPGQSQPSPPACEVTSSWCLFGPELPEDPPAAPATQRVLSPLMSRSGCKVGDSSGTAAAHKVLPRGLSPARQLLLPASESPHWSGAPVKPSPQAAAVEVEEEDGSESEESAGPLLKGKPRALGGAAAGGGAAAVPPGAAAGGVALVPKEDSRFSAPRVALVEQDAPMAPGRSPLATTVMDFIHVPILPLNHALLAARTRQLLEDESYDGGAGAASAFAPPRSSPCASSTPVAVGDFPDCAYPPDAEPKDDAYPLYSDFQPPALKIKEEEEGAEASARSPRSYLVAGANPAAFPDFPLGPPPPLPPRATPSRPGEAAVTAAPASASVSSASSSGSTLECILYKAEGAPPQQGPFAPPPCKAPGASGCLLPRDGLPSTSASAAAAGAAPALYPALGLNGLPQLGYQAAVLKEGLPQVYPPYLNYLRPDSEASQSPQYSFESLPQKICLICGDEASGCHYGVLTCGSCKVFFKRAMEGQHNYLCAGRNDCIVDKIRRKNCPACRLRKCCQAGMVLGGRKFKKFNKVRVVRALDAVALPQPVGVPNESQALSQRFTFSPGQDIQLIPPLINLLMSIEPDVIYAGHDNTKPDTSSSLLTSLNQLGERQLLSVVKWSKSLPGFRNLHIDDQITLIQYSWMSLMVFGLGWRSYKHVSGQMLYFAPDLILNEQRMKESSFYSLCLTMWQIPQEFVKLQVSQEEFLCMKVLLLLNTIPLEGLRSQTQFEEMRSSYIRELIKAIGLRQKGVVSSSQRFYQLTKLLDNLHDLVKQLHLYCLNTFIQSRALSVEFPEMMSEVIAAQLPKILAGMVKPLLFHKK", "assay": "Inhibition of [3H]R5020 binding to human recombinant progesterone receptor relative to R5020", "values": [{"smiles": "C[C@]12CC[C@H]3[C@@H](CCC4=CC(=O)CC[C@@H]43)[C@@H]1C[C@H]1O[C@@H](c3ccc(Br)o3)O[C@]12C(=O)CF", "relative binding affinity (RBA)": 24}, {"smiles": "C[C@]12CC[C@H]3[C@@H](CCC4=CC(=O)CC[C@@H]43)[C@@H]1C[C@H]1O[C@@H](c3ccco3)O[C@]12C(=O)CO", "relative binding affinity (RBA)": 53}, {"smiles": "C[C@]12CC[C@H]3[C@@H](CCC4=CC(=O)CC[C@@H]43)[C@@H]1C[C@H]1O[C@@H](c3ccc(Br)o3)O[C@]12C(=O)CO", "relative binding affinity (RBA)": 65}, {"smiles": "C[C@]12CC[C@H]3[C@@H](CCC4=CC(=O)CC[C@@H]43)[C@@H]1C[C@H]1O[C@H](c3ccc(Br)s3)O[C@]12C(=O)CO", "relative binding affinity (RBA)": 1.7}, {"smiles": "C[C@]12CC[C@H]3[C@@H](CCC4=CC(=O)CC[C@@H]43)[C@@H]1C[C@H]1O[C@@H](c3ccc(I)cc3)O[C@]12C(=O)CO", "relative binding affinity (RBA)": 0.81}, {"smiles": "CC(=O)CC(=O)[C@@]12O[C@@H](c3ccc(Br)o3)O[C@@H]1C[C@H]1[C@@H]3CCC4=CC(=O)CC[C@@H]4[C@H]3CC[C@@]12C", "relative binding affinity (RBA)": 1.4}, {"smiles": "C[C@]12CC[C@H]3[C@@H](CCC4=CC(=O)CC[C@@H]43)[C@@H]1C[C@H]1O[C@@H](c3ccc(I)o3)O[C@]12C(=O)CO", "relative binding affinity (RBA)": 23}, {"smiles": "C[C@]12CC[C@H]3[C@@H](CCC4=CC(=O)CC[C@@H]43)[C@@H]1C[C@H]1O[C@H](c3ccc(I)cc3)O[C@]12C(=O)CF", "relative binding affinity (RBA)": 34}, {"smiles": "C[C@]12CC[C@H]3[C@@H](CCC4=CC(=O)CC[C@@H]43)[C@@H]1C[C@H]1O[C@@H](c3ccc(Br)cc3)O[C@]12C(=O)CF", "relative binding affinity (RBA)": 3.9}, {"smiles": "C[C@]12CC[C@H]3[C@@H](CCC4=CC(=O)CC[C@@H]43)[C@@H]1C[C@H]1O[C@H](c3ccco3)O[C@]12C(=O)CF", "relative binding affinity (RBA)": 5}, {"smiles": "C[C@]12CC[C@H]3[C@@H](CCC4=CC(=O)CC[C@@H]43)[C@@H]1C[C@H]1O[C@@H](c3ccc(I)s3)O[C@]12C(=O)CO", "relative binding affinity (RBA)": 3.2}, {"smiles": "C[C@]12CC[C@H]3[C@@H](CCC4=CC(=O)CC[C@@H]43)[C@@H]1C[C@H]1O[C@H](c3ccc(I)o3)O[C@]12C(=O)CO", "relative binding affinity (RBA)": 2.6}, {"smiles": "C[C@]12CC[C@H]3[C@@H](CCC4=CC(=O)CC[C@@H]43)[C@@H]1C[C@H]1O[C@@H](c3ccco3)O[C@]12C(=O)CF", "relative binding affinity (RBA)": 180}, {"smiles": "CC(=O)CC(=O)[C@@]12O[C@H](c3ccc(Br)o3)O[C@@H]1C[C@H]1[C@@H]3CCC4=CC(=O)CC[C@@H]4[C@H]3CC[C@@]12C", "relative binding affinity (RBA)": 7.1}, {"smiles": "C[C@]12CC[C@H]3[C@@H](CCC4=CC(=O)CC[C@@H]43)[C@@H]1C[C@H]1O[C@H](c3ccc(Br)cc3)O[C@]12C(=O)CF", "relative binding affinity (RBA)": 4.7}, {"smiles": "C[C@]12CC[C@H]3[C@@H](CCC4=CC(=O)CC[C@@H]43)[C@@H]1C[C@H]1O[C@@H](c3ccc(Br)cc3)O[C@]12C(=O)CO", "relative binding affinity (RBA)": 23}, {"smiles": "C[C@]12CC[C@H]3[C@@H](CCC4=CC(=O)CC[C@@H]43)[C@@H]1C[C@H]1O[C@H](c3ccc(I)s3)O[C@]12C(=O)CO", "relative binding affinity (RBA)": 0.95}, {"smiles": "C[C@]12CC[C@H]3[C@@H](CCC4=CC(=O)CC[C@@H]43)[C@@H]1C[C@H]1O[C@H](c3ccco3)O[C@]12C(=O)CO", "relative binding affinity (RBA)": 2.4}, {"smiles": "C[C@]12CC[C@H]3[C@@H](CCC4=CC(=O)CC[C@@H]43)[C@@H]1C[C@H]1O[C@@H](c3ccc(Br)s3)O[C@]12C(=O)CO", "relative binding affinity (RBA)": 5.2}, {"smiles": "C[C@]12CC[C@H]3[C@@H](CCC4=CC(=O)CC[C@@H]43)[C@@H]1C[C@H]1O[C@H](c3ccc(I)o3)O[C@]12C(=O)CF", "relative binding affinity (RBA)": 9}, {"smiles": "C[C@]12CC[C@H]3[C@@H](CCC4=CC(=O)CC[C@@H]43)[C@@H]1C[C@H]1O[C@H](c3ccc(Br)cc3)O[C@]12C(=O)CO", "relative binding affinity (RBA)": 0.41}, {"smiles": "C[C@]12CC[C@H]3[C@@H](CCC4=CC(=O)CC[C@@H]43)[C@@H]1C[C@H]1O[C@@H](c3ccc(I)cc3)O[C@]12C(=O)CF", "relative binding affinity (RBA)": 6.4}, {"smiles": "C[C@]12CC[C@H]3[C@@H](CCC4=CC(=O)CC[C@@H]43)[C@@H]1C[C@H]1O[C@H](c3ccc(I)cc3)O[C@]12C(=O)CO", "relative binding affinity (RBA)": 1.8}, {"smiles": "C[C@]12CC[C@H]3[C@@H](CCC4=CC(=O)CC[C@@H]43)[C@@H]1C[C@H]1O[C@H](c3ccc(Br)o3)O[C@]12C(=O)CF", "relative binding affinity (RBA)": 4.4}, {"smiles": "C[C@]12CC[C@H]3[C@@H](CCC4=CC(=O)CC[C@@H]43)[C@@H]1C[C@H]1O[C@@H](c3ccc(I)o3)O[C@]12C(=O)CF", "relative binding affinity (RBA)": 40}, {"smiles": "C[C@]12CC[C@H]3[C@@H](CCC4=CC(=O)CC[C@@H]43)[C@@H]1C[C@H]1O[C@H](c3ccc(Br)o3)O[C@]12C(=O)CO", "relative binding affinity (RBA)": 2.3}]}]}
